Drawing on ChEMBL document CHEMBL5052856, “Inhibitors of apol1 and methods of using same” (2021), this text covers IC50 for 73 compounds.

The assay addresses Apolipoprotein L1 (Homo sapiens, UniProt O14791). Description: Inhibition of APOL1 G1 variant in human HEK293-T-REx cells measured by Thallium assay. Type of assay: cell-based.
For `NC(=O)CCNC1CC(c2c(-c3ccc(F)cc3)[nH]c3c(F)cc(F)cc23)C1` (stereo not drawn), the IC50 (commonly the point on the concentration scale where inhibition reaches its midpoint) was above 1000 nM.
Next, `O=C(NCCn1cncn1)[C@H]1C[C@@H](c2c(-c3ccc(F)cc3)[nH]c3c(F)cc(F)cc32)C1`: above 1000 nM; `C[C@@H](O)CNC(=O)[C@H]1C[C@@H](c2c(-c3ccc(F)cc3)[nH]c3c(F)cc(F)cc32)C1`: above 1000 nM.
In the case of `NC(=O)C(CO)NC(=O)[C@H]1C[C@@H](c2c(-c3ccc(F)cc3)[nH]c3c(F)cc(F)cc32)C1` (stereo partly drawn) it was above 1000 nM.
In the case of `C[C@@H](CO)NC(=O)N[C@H]1C[C@H](c2c(-c3ccc(F)cc3)[nH]c3c(F)cc(F)cc32)C1` it was 0.25 nM.
The compound `O=C(N[C@H]1C[C@H](O)C1)[C@H]1C[C@@H](c2c(-c3ccc(F)cc3)[nH]c3c(F)cc(F)cc32)C1` displayed an IC50 above 1000 nM.
Next, `C[C@H](CO)NC(=O)CNC(=O)[C@H]1C[C@H](c2c(-c3ccc(F)cc3)[nH]c3c(F)cc(F)cc32)C1`: above 1000 nM.
Next, `O=C(NCC(O)CO)[C@H]1C[C@@H](c2c(-c3ccc(F)cc3)[nH]c3c(F)cc(F)cc32)C1` (stereo partly drawn): above 1000 nM; `O=C1NCCC1NC(=O)[C@H]1C[C@@H](c2c(-c3ccc(F)cc3)[nH]c3c(F)cc(F)cc32)C1` (stereo partly drawn): above 1000 nM; `Cn1cnc(CNC(=O)C2(C)CC(c3c(-c4ccc(F)cc4)[nH]c4c(F)cc(F)cc34)C2)c1` (stereo not drawn): 0.25 nM.
Next, `O=C(CNC(=O)[C@H]1C[C@H](c2c(-c3ccc(F)cc3)[nH]c3c(F)cc(F)cc32)C1)NCCO`: above 1000 nM.
As for `O=C(NC(CO)CO)[C@H]1C[C@@H](c2c(-c3ccc(F)cc3)[nH]c3c(F)cc(F)cc32)C1`, the IC50 is above 1000 nM.
Next, `Cc1ccn(CCNC(=O)[C@H]2C[C@@H](c3c(-c4ccc(F)cc4)[nH]c4c(F)cc(F)cc43)C2)n1`: 0.25 nM.
In the case of `O=C1NC[C@@H](O)[C@@H]1NC(=O)[C@H]1C[C@H](c2c(-c3ccc(F)cc3)[nH]c3c(F)cc(F)cc32)C1` it was below 250 nM; in that of `NC(=O)CNC(=O)C1CC(c2c(-c3ccc(F)cc3)[nH]c3c(F)cc(C(F)(F)F)cc23)C1` (stereo not drawn), below 250 nM.
Next, `CC1(C(=O)NC2(CO)CC2)CC(c2c(-c3ccc(F)cc3)[nH]c3c(F)cc(F)cc23)C1` (stereo not drawn): below 250 nM; `O=C(N[C@@H]1CCOC1)[C@H]1C[C@@H](c2c(-c3ccc(F)cc3)[nH]c3c(F)cc(F)cc32)C1`: above 1000 nM.
On to `O=C(NCC(F)(F)F)[C@H]1C[C@@H](c2c(-c3ccc(F)cc3)[nH]c3c(F)cc(F)cc32)C1`, for which the IC50 was 0.25 nM.
Next, `C[C@H](CO)NC(=O)[C@H]1C[C@@H](c2c(-c3ccc(F)cc3)[nH]c3c(F)cc(F)cc32)C1`: above 1000 nM; `CC(CO)NC(=O)[C@H]1C[C@@H](c2c(-c3ccc(F)cc3)[nH]c3c(F)cc(F)cc32)C1` (stereo partly drawn): above 1000 nM.
Next, `O=C(NCCO)C1CC(Cc2c(-c3ccc(F)cc3)[nH]c3c(F)cc(F)cc23)C1` (stereo not drawn): 0.25 nM; `N#CC(CO)NC(=O)C1CC(Cc2c(-c3ccc(F)cc3)[nH]c3c(F)cc(F)cc23)C1` (stereo not drawn): above 1000 nM.
Next, `C[C@H](O)[C@H](CO)NC(=O)[C@H]1C[C@@H](c2c(-c3ccc(F)cc3)[nH]c3c(F)cc(F)cc32)C1`: above 1000 nM.
Compound `O=C(NCCO)[C@H]1C[C@@H](c2c(-c3ccc(F)cc3)[nH]c3c(F)cc(F)cc32)C1` came in with an IC50 of 0.25 nM.
`O=C(NC1(CO)CC1)C1(F)CC(c2c(-c3ccc(F)cc3)[nH]c3c(F)cc(F)cc23)C1` (stereo not drawn) had an IC50 below 250 nM.
In the case of `C[C@@H](O)CNC(=O)N[C@H]1C[C@H](c2c(-c3ccc(F)cc3)[nH]c3c(F)cc(F)cc32)C1` it was above 1000 nM.
Next, `O=C(NCC1CC(F)(F)C1)[C@H]1C[C@@H](c2c(-c3ccc(F)cc3)[nH]c3c(F)cc(F)cc32)C1`: above 1000 nM; `O=C(NC(CO)CO)N[C@H]1C[C@H](c2c(-c3ccc(F)cc3)[nH]c3c(F)cc(F)cc32)C1`: above 1000 nM; `O=C1CN(C(=O)[C@H]2C[C@@H](c3c(-c4ccc(F)cc4)[nH]c4c(F)cc(F)cc43)C2)CCN1`: above 1000 nM.
`O=C(NC1(CO)CC1)[C@H]1C[C@@H](c2c(-c3ccc(F)cc3)[nH]c3c(F)cc(F)cc32)C1` displayed an IC50 above 1000 nM.
In the case of `C[C@H](O)CNC(=O)C1CC(Cc2c(-c3ccc(F)cc3)[nH]c3c(F)cc(F)cc23)C1` (stereo partly drawn) it was above 1000 nM; in that of `CC1(C(=O)NCCO)CC(c2c(-c3ccc(F)cc3)[nH]c3c(F)cc(F)cc23)C1` (stereo not drawn), 0.25 nM.
Next, `CC(O)[C@H](CO)NC(=O)[C@H]1C[C@@H](c2c(-c3ccc(F)cc3)[nH]c3c(F)cc(F)cc32)C1` (stereo partly drawn): above 1000 nM; `C[C@@H](CO)NC(=O)[C@H]1C[C@@H](c2c(-c3ccc(F)cc3)[nH]c3c(F)cc(F)cc32)C1`: 0.25 nM; `O=C1NCCCC1NC(=O)[C@H]1C[C@@H](c2c(-c3ccc(F)cc3)[nH]c3c(F)cc(F)cc32)C1` (stereo partly drawn): above 1000 nM.
In the case of `O=C1NC[C@@H](O)[C@@H]1NC(=O)[C@H]1C[C@@H](c2c(-c3ccc(F)cc3)[nH]c3c(F)cc(F)cc32)C1` it was above 1000 nM; in that of `Cn1nccc1CNC(=O)[C@H]1C[C@@H](c2c(-c3ccc(F)cc3)[nH]c3c(F)cc(F)cc32)C1`, above 1000 nM.
As for `O=C1NCC[C@H]1NC(=O)[C@H]1C[C@@H](c2c(-c3ccc(F)cc3)[nH]c3c(F)cc(F)cc32)C1`, the IC50 is above 1000 nM.
In the case of `CC[C@@H](CO)NC(=O)[C@H]1C[C@@H](c2c(-c3ccc(F)cc3)[nH]c3c(F)cc(F)cc32)C1` it was above 1000 nM; in that of `O=C(NC(CO)(CO)CO)[C@H]1C[C@H](c2c(-c3ccc(F)cc3)[nH]c3c(F)cc(F)cc32)C1`, below 250 nM; in that of `O=C(N[C@H]1CCOC1)[C@H]1C[C@@H](c2c(-c3ccc(F)cc3)[nH]c3c(F)cc(F)cc32)C1`, above 1000 nM.
In the case of `CNC(=O)CN[C@H]1C[C@H](c2c(-c3ccc(F)cc3)[nH]c3c(F)cc(F)cc32)C1` it was 0.25 nM.
In the case of `O=C(CNC(=O)[C@H]1C[C@H](c2c(-c3ccc(F)cc3)[nH]c3c(F)cc(F)cc32)C1)NC[C@@H](O)C(F)(F)F`, the IC50 is above 1000 nM.
Next, `CC(C)NC(=O)CN[C@H]1C[C@H](c2c(-c3ccc(F)cc3)[nH]c3c(F)cc(F)cc32)C1`: above 1000 nM.
In the case of `O=C([C@H]1C[C@@H](c2c(-c3ccc(F)cc3)[nH]c3c(F)cc(F)cc32)C1)N1C[C@@H](O)[C@H](O)C1` it was above 1000 nM; in that of `O=C(NC(CO)(CO)CO)[C@H]1C[C@@H](c2c(-c3ccc(F)cc3)[nH]c3c(F)cc(F)cc32)C1`, 0.25 nM; in that of `O=C(NC1CC(O)C1)[C@H]1C[C@@H](c2c(-c3ccc(F)cc3)[nH]c3c(F)cc(F)cc32)C1` (stereo partly drawn), above 1000 nM.
In the case of `O=C(NC1CCNC1=O)N[C@H]1C[C@H](c2c(-c3ccc(F)cc3)[nH]c3c(F)cc(F)cc32)C1` (stereo partly drawn) it was above 1000 nM; in that of `Cn1nccc1NC(=O)[C@H]1C[C@@H](c2c(-c3ccc(F)cc3)[nH]c3c(F)cc(F)cc32)C1`, above 1000 nM.
The compound `O=C(NC1(CO)CCC1)[C@H]1C[C@@H](c2c(-c3ccc(F)cc3)[nH]c3c(F)cc(F)cc32)C1` gave an IC50 of 0.25 nM.
Next, `O=C(N[C@@H](CO)C(F)F)[C@H]1C[C@H](c2c(-c3ccc(F)cc3)[nH]c3c(F)cc(F)cc32)C1`: below 250 nM.
With `O=C1CCC(NC(=O)[C@H]2C[C@@H](c3c(-c4ccc(F)cc4)[nH]c4c(F)cc(F)cc43)C2)C(=O)N1` (stereo partly drawn), the IC50 is above 1000 nM.
Next, `NC(=O)CNC1CC(c2c(-c3ccc(F)cc3)[nH]c3c(F)cc(F)cc23)C1` (stereo not drawn): above 1000 nM.
In the case of `CC(C)C(CO)NC(=O)[C@H]1C[C@@H](c2c(-c3ccc(F)cc3)[nH]c3c(F)cc(F)cc32)C1` (stereo partly drawn) it was above 1000 nM.
Next, `O=C(NCCO)C1CC(c2c(-c3ccc(F)cc3)[nH]c3c(F)cc(C(F)(F)F)cc23)C1` (stereo not drawn): 0.25 nM; `Cn1cnc(CNC(=O)C2(F)CC(c3c(-c4ccc(F)cc4)[nH]c4c(F)cc(F)cc34)C2)c1` (stereo not drawn): below 250 nM; `CC(CO)(CO)NC(=O)[C@H]1C[C@@H](c2c(-c3ccc(F)cc3)[nH]c3c(F)cc(F)cc32)C1`: 0.25 nM.
Turning to `NC(=O)CN[C@H]1C[C@H](c2c(-c3ccc(F)cc3)[nH]c3c(F)cc(F)cc32)C1`, the IC50 was above 1000 nM.
In the case of `COCCNC(=O)[C@H]1C[C@@H](c2c(-c3ccc(F)cc3)[nH]c3c(F)cc(F)cc32)C1` it was above 1000 nM; in that of `O=C(CN[C@H]1C[C@H](c2c(-c3ccc(F)cc3)[nH]c3c(F)cc(F)cc32)C1)NC1CC1`, above 1000 nM; in that of `Cn1cnc(CNC(=O)[C@H]2C[C@@H](c3c(-c4ccc(F)cc4)[nH]c4c(F)cc(F)cc43)C2)c1`, above 1000 nM.
Next, `O=C(NCC(F)F)[C@H]1C[C@@H](c2c(-c3ccc(F)cc3)[nH]c3c(F)cc(F)cc32)C1`: 0.25 nM; `O=C(NCCn1cccc1)[C@H]1C[C@@H](c2c(-c3ccc(F)cc3)[nH]c3c(F)cc(F)cc32)C1`: above 1000 nM.
In the case of `CC(C)CC(NC(=O)[C@H]1C[C@@H](c2c(-c3ccc(F)cc3)[nH]c3c(F)cc(F)cc32)C1)C(N)=O` (stereo partly drawn) it was above 1000 nM; in that of `NC(=O)CNC(=O)[C@H]1C[C@@H](c2c(-c3ccc(F)cc3)[nH]c3c(F)cc(F)cc32)C1`, above 1000 nM.
For the compound `CC(C)(CO)NC(=O)[C@H]1C[C@@H](c2c(-c3ccc(F)cc3)[nH]c3c(F)cc(F)cc32)C1`, 0.25 nM corresponded to half-maximal inhibition (IC50).
In the case of `O=C(NCC(O)C(F)F)C1CC(Cc2c(-c3ccc(F)cc3)[nH]c3c(F)cc(F)cc23)C1` (stereo not drawn) it was above 1000 nM; in that of `O=C(NCC1COC1)[C@H]1C[C@@H](c2c(-c3ccc(F)cc3)[nH]c3c(F)cc(F)cc32)C1`, above 1000 nM; in that of `CON(C)C(=O)CN[C@H]1C[C@H](c2c(-c3ccc(F)cc3)[nH]c3c(F)cc(F)cc32)C1`, above 1000 nM.
Next, `O=C(N[C@@H](CO)C(F)F)[C@H]1C[C@@H](c2c(-c3ccc(F)cc3)[nH]c3c(F)cc(F)cc32)C1`: 0.25 nM; `O=C(CNC(=O)[C@H]1C[C@H](c2c(-c3ccc(F)cc3)[nH]c3c(F)cc(F)cc32)C1)NC[C@H](O)C(F)(F)F`: above 1000 nM; `CC1(C(=O)N[C@H]2CCNC2=O)CC(c2c(-c3ccc(F)cc3)[nH]c3c(F)cc(F)cc23)C1` (stereo partly drawn): 0.25 nM.
Next, `CC(C)C[C@H](CO)NC(=O)C1CC(Cc2c(-c3ccc(F)cc3)[nH]c3c(F)cc(F)cc23)C1` (stereo partly drawn): above 1000 nM.
